In US6410054B1, “Immediate release eplerenone compositions” (G. D. Searle & Co., priority 1998, dated 2002):

Assay: Single dose study: plasma pharmacokinetics of eplerenone, open lactone ring form, spironolactone
Conditions: for Plasma Concentration Of Eplerenone: -0.25 h (predose); for Oral Clearance: eplerenone in plasma; for concentration at 12 h / AUC(0-t) / Cmax / MRT / Tmax / concentration at 0.5 h / concentration at 1 h / concentration at 2 h / concentration at 3 h / concentration at 4 h / concentration at 6 h / concentration at 8 h / concentration at 16 h / concentration at 24 h / concentration at 28 h / concentration at 32 h / concentration at 48 h / concentration at 72 h / concentration at 96 h / half-life: male, human, po
Method: The pharmacokinetics, safety and antialdosterone activity of single 10, 50, 100, 300 and 1000 mg oral doses of eplerenone were evaluated in a single-center, randomized, double-blind, placebo-controlled study.
The study employed seven parallel dose groups of eight healthy male humans.
The eplerenone capsules administered corresponded to the capsules (or combinations of the capsules) disclosed in Examples 4, 5, 7 and 8 above. The placebo was a conventional capsule containing lactose. […] The fludrocortisone used in the study consisted of commercially available fludrocortisone tablets (Florinef®, Squibb BV).
The subjects, who underwent a ten hour food fast prior to administration of the dose, received a single oral dose of one of the study medications together with about 180 mL of water at 0800 hours. […] Each dose of fludrocortisone was administered with 150 mL of water except for the 1.0 mg dose which was administered with 200 mL of water.
The plasma samples collected from subjects dosed with eplerenone were assayed for concentrations of eplerenone and the open lactone ring form of eplerenone. […] A subset of plasma samples was also assayed for testosterone levels. The urine collected was analyzed to determine concentrations and amounts of eplerenone and the open lactone ring form of eplerenone, the amount of sodium and potassium excreted, and the urinary log10 (sodium/potassium) ratio.

For `COC(=O)C1CC2=CC(=O)CCC2(C)C23OC2CC2(C)C(CC[C@@]24CCC(=O)O4)C13` (stereo partly drawn) [eplerenone, methyl hydrogen 9,11α-epoxy-17α-hydroxy-3-oxopregn-4-ene-7α,21-dicarboxylate, γ-lactone], which “Plasma Concentration Of Eplerenone” value (10 mg single oral dose) is on record?
The value was 0 ng/mL.

What about the “Plasma Concentration Of Eplerenone” value (50 mg single oral dose) of the same compound?
The value was 0 ng/mL.

And the “Plasma Concentration Of Eplerenone” value (100 mg single oral dose)?
Its value is 0 ng/mL.

What about the “Plasma Concentration Of Eplerenone” value (300 mg single oral dose) of the same compound?
Its value is 0 ng/mL.

And the “Plasma Concentration Of Eplerenone” value (1000 mg single oral dose)?
The value was 0 ng/mL.

What about the “Oral Clearance” value (10 mg single oral dose) of the same compound?
The value was 13.3 L/h.

And the “Oral Clearance” value (50 mg single oral dose)?
The value was 13.7 L/h.

What about the “Oral Clearance” value (100 mg single oral dose) of the same compound?
Its value is 13.1 L/h.

And the “Oral Clearance” value (300 mg single oral dose)?
Its value is 17.6 L/h.

What about the “Oral Clearance” value (1000 mg single oral dose) of the same compound?
The value was 18.4 L/h.

And the concentration at 12 h (in vivo, 50 mg)?
The concentration at 12 h was 49.4 ng/mL.

And the AUC(0-t) (plasma, 10 mg)?
The AUC(0-t) was 942 ng·h/mL.

What about the Cmax (plasma, 10 mg) of the same compound?
The Cmax was 191 ng/mL.

What about the MRT (plasma, 10 mg) of the same compound?
Its MRT is 3.9 h.

What about the Tmax (plasma, 10 mg) of the same compound?
Its Tmax is 1.3 h.

And the concentration at 0.5 h (plasma, 10 mg)?
The concentration at 0.5 h was 130 ng/mL.

What about the concentration at 1 h (plasma, 10 mg) of the same compound?
Its concentration at 1 h is 177 ng/mL.

What about the concentration at 2 h (plasma, 10 mg) of the same compound?
The concentration at 2 h was 159 ng/mL.

What about the concentration at 3 h (plasma, 10 mg) of the same compound?
Its concentration at 3 h is 125 ng/mL.

What about the concentration at 4 h (plasma, 10 mg) of the same compound?
Its concentration at 4 h is 106 ng/mL.

What about the concentration at 6 h (plasma, 10 mg) of the same compound?
Its concentration at 6 h is 65.3 ng/mL.

What about the concentration at 8 h (plasma, 10 mg) of the same compound?
The concentration at 8 h was 34.4 ng/mL.

And the concentration at 12 h (plasma, 10 mg)?
The concentration at 12 h was 6 ng/mL.

What about the concentration at 16 h (plasma, 10 mg) of the same compound?
Its concentration at 16 h is 6 ng/mL.

And the concentration at 24 h (plasma, 10 mg)?
Its concentration at 24 h is 1.7 ng/mL.

What about the concentration at 28 h (plasma, 10 mg) of the same compound?
The concentration at 28 h was 0 ng/mL.

And the concentration at 32 h (plasma, 10 mg)?
The concentration at 32 h was 0 ng/mL.

And the concentration at 48 h (plasma, 10 mg)?
The concentration at 48 h was 0 ng/mL.

And the concentration at 72 h (plasma, 10 mg)?
Its concentration at 72 h is 0 ng/mL.

What about the concentration at 96 h (plasma, 10 mg) of the same compound?
The concentration at 96 h was 0 ng/mL.

What about the half-life (plasma, 10 mg) of the same compound?
The half-life was 2.1 h.

And the AUC(0-t) (plasma, 50 mg)?
Its AUC(0-t) is 4020 ng·h/mL.

What about the Cmax (plasma, 50 mg) of the same compound?
Its Cmax is 797 ng/mL.

And the MRT (plasma, 50 mg)?
Its MRT is 4.2 h.

What about the Tmax (plasma, 50 mg) of the same compound?
The Tmax was 1.4 h.

And the concentration at 0.5 h (plasma, 50 mg)?
Its concentration at 0.5 h is 552 ng/mL.

What about the concentration at 1 h (plasma, 50 mg) of the same compound?
Its concentration at 1 h is 721 ng/mL.

What about the concentration at 2 h (plasma, 50 mg) of the same compound?
The concentration at 2 h was 693 ng/mL.

What about the concentration at 3 h (plasma, 50 mg) of the same compound?
The concentration at 3 h was 592 ng/mL.

What about the concentration at 4 h (plasma, 50 mg) of the same compound?
Its concentration at 4 h is 457 ng/mL.

And the concentration at 6 h (plasma, 50 mg)?
The concentration at 6 h was 270 ng/mL.

And the concentration at 8 h (plasma, 50 mg)?
The concentration at 8 h was 146 ng/mL.

And the concentration at 16 h (plasma, 50 mg)?
The concentration at 16 h was 18.3 ng/mL.

And the concentration at 24 h (plasma, 50 mg)?
The concentration at 24 h was 3 ng/mL.

What about the concentration at 28 h (plasma, 50 mg) of the same compound?
The concentration at 28 h was 1.8 ng/mL.

What about the concentration at 32 h (plasma, 50 mg) of the same compound?
Its concentration at 32 h is 0 ng/mL.

And the concentration at 48 h (plasma, 50 mg)?
Its concentration at 48 h is 0 ng/mL.

And the concentration at 72 h (plasma, 50 mg)?
Its concentration at 72 h is 0 ng/mL.

What about the concentration at 96 h (plasma, 50 mg) of the same compound?
Its concentration at 96 h is 0 ng/mL.

And the half-life (plasma, 50 mg)?
Its half-life is 2.9 h.

What about the AUC(0-t) (plasma, 100 mg) of the same compound?
The AUC(0-t) was 7940 ng·h/mL.

What about the Cmax (plasma, 100 mg) of the same compound?
The Cmax was 1500 ng/mL.

What about the MRT (plasma, 100 mg) of the same compound?
Its MRT is 4.9 h.

What about the Tmax (plasma, 100 mg) of the same compound?
Its Tmax is 1.5 h.

And the concentration at 0.5 h (plasma, 100 mg)?
Its concentration at 0.5 h is 758 ng/mL.

What about the concentration at 1 h (plasma, 100 mg) of the same compound?
The concentration at 1 h was 1220 ng/mL.

What about the concentration at 2 h (plasma, 100 mg) of the same compound?
The concentration at 2 h was 1360 ng/mL.

What about the concentration at 3 h (plasma, 100 mg) of the same compound?
Its concentration at 3 h is 1110 ng/mL.

And the concentration at 4 h (plasma, 100 mg)?
The concentration at 4 h was 900 ng/mL.

What about the concentration at 6 h (plasma, 100 mg) of the same compound?
The concentration at 6 h was 558 ng/mL.

And the concentration at 8 h (plasma, 100 mg)?
Its concentration at 8 h is 275 ng/mL.

What about the concentration at 12 h (plasma, 100 mg) of the same compound?
The concentration at 12 h was 124 ng/mL.

And the concentration at 16 h (plasma, 100 mg)?
Its concentration at 16 h is 41.9 ng/mL.

What about the concentration at 24 h (plasma, 100 mg) of the same compound?
Its concentration at 24 h is 13.1 ng/mL.

And the concentration at 28 h (plasma, 100 mg)?
The concentration at 28 h was 6.1 ng/mL.

And the concentration at 32 h (plasma, 100 mg)?
The concentration at 32 h was 3 ng/mL.

And the concentration at 48 h (plasma, 100 mg)?
The concentration at 48 h was 0 ng/mL.

What about the concentration at 72 h (plasma, 100 mg) of the same compound?
Its concentration at 72 h is 0 ng/mL.

And the concentration at 96 h (plasma, 100 mg)?
The concentration at 96 h was 0 ng/mL.

What about the half-life (plasma, 100 mg) of the same compound?
The half-life was 4.9 h.

And the AUC(0-t) (plasma, 300 mg)?
The AUC(0-t) was 18500 ng·h/mL.

And the Cmax (plasma, 300 mg)?
Its Cmax is 2970 ng/mL.

And the MRT (plasma, 300 mg)?
The MRT was 5.5 h.

What about the Tmax (plasma, 300 mg) of the same compound?
Its Tmax is 1.5 h.
